In PubChem BioAssay AID1963979 (Molecular Pharmacology Branch, DTP, NCI, 2024):
Values belong to the molecule of their own block, whether it stands above or below them.

Tested on: 361931-004-R-J1-PDC multicell spheroid viability
Assay: Anticancer human tumor 361931-004-R-J1-PDC patient-derived colon adenocarcinoma cell line growth inhibition [PI3K]
Conditions: for IC50: curve of first compound; for viability, T/C: stronger effect = lower value
Excerpt: Combinatorial screen of targeted agents with the PI3K inhibitors inavolisib, alpelisib, duvelisib, and copanlisib in multi-cell type tumor spheroids
A high-throughput screen of multi-cell type tumor spheroids was designed to identify active combinations of targeted small molecules and PI3K pathway inhibitors. Complex spheroids include a stromal component modeled by human endothelial cells (HUVEC) and fibroblasts modeled by human mesenchymal stem cells (MSCs). The concentration ranges selected for each drug and investigational agent were based upon clinically achievable concentrations if the clinical Cmax of the agent was known.
Compounds. The drugs and investigational agents: inavolisib (NSC800729), alpelisib (NSC765974), duvelisib (NSC772469), copanlisib (NSC816437), ipatasertib (NSC767898), afuresertib (NSC778305), talazoparib (NSC767125), sapanisertib (NSC764658), selumetinib (NSC741078), tovorafenib (DAY101, NSC766906), vemurafenib (NSC761431), ravoxertinib (NSC781343), sotorasib (NSC818433), MRTX1133 (NSC 836407), abemaciclib (NSC 768073), palbociclib (NSC758247), venetoclax (NSC 766270), SY5609 (NSC837396), enzalutamide (NSC755605), and darolutamide (NSC825331), were obtained from the National Cancer Institute (NCI) Developmental Therapeutics Program Chemical Repository. The FDA-approved anticancer drug set is available from the NCI Developmental Therapeutics Program. […] The stock solutions were prepared in dimethyl sulfoxide (DMSO, Sigma-Aldrich, St. Louis, MO, cat. D2650) at 800-fold the tested concentration and stored at -70 degrees C prior to their use. All drugs and investigational agents were tested over a range starting from a high concentration at or near the clinical Cmax and decreasing in half-log increments. If the clinical Cmax for an agent had not been determined, the highest concentration tested was 10 microM.
Cell Culture. All cells were maintained in an incubator at 37 degrees C and 5% CO2 with 95% humidity. The PDC lines were cultured according to standard operating procedures established by the NCI PDMR (https://pdmr.cancer.gov/sops/default.htm). All PDCs were thawed and cultured in Matrigel-coated flasks prepared with a working solution of 1X Ham's F-12 nutrient mix, without supplementation (Invitrogen, Waltham, MA, cat. 11765054), 100 U/mL penicillin-streptomycin (Invitrogen, cat. 15140122), and 2.5% Matrigel (Corning Inc., Corning, NY, cat. 354248) for the first three passages. The 354836-022-R-J1-PDC, 475296-252-R-J1-PDC, and 997726-040-R-J2-PDC lines were cultured in 6A media, which includes advanced DMEM/F-12 (Thermo Fisher Scientific, cat. 12634028), 10 mM HEPES (Thermo Fisher Scientific, cat. 15630080), 1X GlutaMAX supplement (Thermo Fisher Scientific, cat. 35050061), 0.1 mg/mL primocin (InvivoGen, San Diego, CA, cat. ant-pm-2), 10% defined fetal bovine serum, heat inactivated (HyClone Laboratories Inc., Logan, UT, cat. SH30070.03HI), 50% L-WRN conditioned media (ATCC, cat. CRL-3276), 1.25 mM N-Acetyl-L-cysteine (Sigma-Aldrich, cat. A9165), 10 mM nicotinamide (Sigma-Aldrich, cat. N0636), 1X B-27 supplement (Thermo Fisher Scientific, cat. 17504044), 1X N-2 supplement (Thermo Fisher Scientific, cat. 17502048), and 10 microM Y-27632 dihydrochloride (Tocris Bioscience, Bristol, United Kingdom, cat. 1254). The 624824-186-R-J2-PDC line was cultured in 6C/Colon 1B media, which includes all 6A media components plus 50 ng/mL human EGF recombinant protein (Thermo Fisher Scientific, cat. PHG0311). […]

[1] = second compound 0.00316 µM, first compound 0.0316 µM
[2] = second compound 0.00316 µM, first compound 0.1 µM
[3] = second compound 0.00316 µM, first compound 0.316 µM
[4] = second compound 0.00316 µM, first compound 1 µM
[5] = second compound 0.01 µM, first compound 0.0316 µM
[6] = second compound 0.01 µM, first compound 0.1 µM
[7] = second compound 0.01 µM, first compound 0.316 µM
[8] = second compound 0.01 µM, first compound 1 µM
[9] = second compound 0.0316 µM, first compound 0.0316 µM
[10] = second compound 0.0316 µM, first compound 0.1 µM
[11] = second compound 0.0316 µM, first compound 0.316 µM
[12] = second compound 0.0316 µM, first compound 1 µM
[13] = second compound 0.1 µM, first compound 0.0316 µM
[14] = second compound 0.1 µM, first compound 0.1 µM
[15] = second compound 0.1 µM, first compound 0.316 µM
[16] = second compound 0.1 µM, first compound 1 µM
[17] = second compound 0.316 µM, first compound 0.0316 µM
[18] = second compound 0.316 µM, first compound 0.1 µM
[19] = second compound 0.316 µM, first compound 0.316 µM
[20] = second compound 0.316 µM, first compound 1 µM
[21] = second compound 1 µM, first compound 0.0316 µM
[22] = second compound 1 µM, first compound 0.1 µM
[23] = second compound 1 µM, first compound 0.316 µM
[24] = second compound 1 µM, first compound 1 µM
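Further: spheroids exposed to agents for seven days before readout.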

IC50 (second compound 0.00316 µM): > 1000 nM
IC50 (second compound 0.01 µM): > 1000 nM
IC50 (second compound 0.0316 µM): > 1000 nM
IC50 (second compound 0.1 µM): 504 nM
IC50 (second compound 0.316 µM): 142 nM
IC50 (second compound 1 µM): 146 nM
Compound: CCN1CCN(Cc2ccc(Nc3ncc(F)c(-c4cc(F)c5nc(C)n(C(C)C)c5c4)n3)nc2)CC1 + CC(Nc1ccc2c(c1)OCCn1cc(N3C(=O)OCC3C(F)F)nc1-2)C(N)=O
viability, T/C (second compound 0.00316 µM, first compound 0.00316 µM): 96.2%
viability, T/C (second compound 0.00316 µM, first compound 0.01 µM): 100%
viability, T/C [1]: 91.2%
viability, T/C [2]: 86.9%
viability, T/C [3]: 86.2%
viability, T/C [4]: 64.3%
viability, T/C (second compound 0.01 µM, first compound 0.00316 µM): 104%
viability, T/C (second compound 0.01 µM, first compound 0.01 µM): 99.1%
viability, T/C [5]: 77.5%
viability, T/C [6]: 81.4%
viability, T/C [7]: 86.1%
viability, T/C [8]: 56.7%
viability, T/C (second compound 0.0316 µM, first compound 0.00316 µM): 91.4%
viability, T/C (second compound 0.0316 µM, first compound 0.01 µM): 98.2%
viability, T/C [9]: 76.2%
viability, T/C [10]: 80%
viability, T/C [11]: 68%
viability, T/C [12]: 55.4%
viability, T/C (second compound 0.1 µM, first compound 0.00316 µM): 90%
viability, T/C (second compound 0.1 µM, first compound 0.01 µM): 87.6%
viability, T/C [13]: 71.7%
viability, T/C [14]: 63.4%
viability, T/C [15]: 67.2%
viability, T/C [16]: 36.4%
viability, T/C (second compound 0.316 µM, first compound 0.00316 µM): 75.7%
viability, T/C (second compound 0.316 µM, first compound 0.01 µM): 86.4%
viability, T/C [17]: 62.8%
viability, T/C [18]: 55%
viability, T/C [19]: 42.5%
viability, T/C [20]: 33.1%
viability, T/C (second compound 1 µM, first compound 0.00316 µM): 75.4%
viability, T/C (second compound 1 µM, first compound 0.01 µM): 75.1%
viability, T/C [21]: 54.4%
viability, T/C [22]: 56.1%
viability, T/C [23]: 45%
viability, T/C [24]: 32.2%

IC50 (second compound 0.00316 µM): 1090 nM
IC50 (second compound 0.01 µM): 900 nM
IC50 (second compound 0.0316 µM): 695 nM
IC50 (second compound 0.1 µM): 730 nM
IC50 (second compound 0.316 µM): 965 nM
IC50 (second compound 1 µM): 654 nM
Compound: Cn1ncc(Cl)c1-c1cc(C(=O)NC(CN)Cc2cccc(F)c2)sc1Cl (centres undefined) + CC(Nc1ccc2c(c1)OCCn1cc(N3C(=O)OCC3C(F)F)nc1-2)C(N)=O
viability, T/C [1]: 92.5%
viability, T/C [2]: 91.9%
viability, T/C [3]: 76.6%
viability, T/C [4]: 50.9%
viability, T/C (second compound 0.00316 µM, first compound 3.16 µM): 32.2%
viability, T/C (second compound 0.00316 µM, first compound 10 µM): 22.6%
viability, T/C [5]: 99%
viability, T/C [6]: 94.5%
viability, T/C [7]: 68.7%
viability, T/C [8]: 48.4%
viability, T/C (second compound 0.01 µM, first compound 3.16 µM): 29%
viability, T/C (second compound 0.01 µM, first compound 10 µM): 15.4%
viability, T/C [9]: 103%
viability, T/C [10]: 110%
viability, T/C [11]: 75.2%
viability, T/C [12]: 37.3%
viability, T/C (second compound 0.0316 µM, first compound 3.16 µM): 25.8%
viability, T/C (second compound 0.0316 µM, first compound 10 µM): 12.8%
viability, T/C [13]: 85%
viability, T/C [14]: 87.7%
viability, T/C [15]: 67%
viability, T/C [16]: 41.6%
viability, T/C (second compound 0.1 µM, first compound 3.16 µM): 26.1%
viability, T/C (second compound 0.1 µM, first compound 10 µM): 12.8%
viability, T/C [17]: 90.1%
viability, T/C [18]: 77.9%
viability, T/C [19]: 68.8%
viability, T/C [20]: 54.2%
viability, T/C (second compound 0.316 µM, first compound 3.16 µM): 22.4%
viability, T/C (second compound 0.316 µM, first compound 10 µM): 14.6%
viability, T/C [21]: 82.6%
viability, T/C [22]: 79.4%
viability, T/C [23]: 59.5%
viability, T/C [24]: 45.1%
viability, T/C (second compound 1 µM, first compound 3.16 µM): 24%
viability, T/C (second compound 1 µM, first compound 10 µM): 16.1%
